According to PubChem BioAssay AID2060885 (Molecular Pharmacology Branch, DTP, NCI, 2025):

Tested on: NCI-H23 complex spheroids with HUVEC/MSC, viability
Assay: Anticancer human tumor NCI-H23 cell line growth inhibition [RAS];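 further: spheroids exposed to compound for 7 days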;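 on viability, T/C: 100% = DMSO vehicle control viability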
Conditions: for IC50: curve of first compound; for viability, T/C: stronger effect = lower value; active means viability on the fitted dose curve at most 10% of control; inactive means the rest
Method in brief: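 Tumour cells grown as complex spheroids with HUVEC endothelial cells and mesenchymal stem cells, treated with RAS pathway inhibitor combinations. Each agent spans half-log steps from near clinical Cmax, or 10 microM where Cmax is unknown.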

[1] = second compound 0.000949 µM, first compound 0.00316 µM
[2] = second compound 0.000949 µM, first compound 0.01 µM
[3] = second compound 0.000949 µM, first compound 0.0316 µM
[4] = second compound 0.000949 µM, first compound 0.1 µM
[5] = second compound 0.000949 µM, first compound 0.316 µM
[6] = second compound 0.000949 µM, first compound 1 µM
[7] = second compound 0.003 µM, first compound 0.00316 µM
[8] = second compound 0.003 µM, first compound 0.01 µM
[9] = second compound 0.003 µM, first compound 0.0316 µM
[10] = second compound 0.003 µM, first compound 0.1 µM
[11] = second compound 0.003 µM, first compound 0.316 µM
[12] = second compound 0.003 µM, first compound 1 µM
[13] = second compound 0.00949 µM, first compound 0.00316 µM
[14] = second compound 0.00949 µM, first compound 0.01 µM
[15] = second compound 0.00949 µM, first compound 0.0316 µM
[16] = second compound 0.00949 µM, first compound 0.1 µM
[17] = second compound 0.00949 µM, first compound 0.316 µM
[18] = second compound 0.00949 µM, first compound 1 µM
[19] = second compound 0.03 µM, first compound 0.00316 µM
[20] = second compound 0.03 µM, first compound 0.01 µM
[21] = second compound 0.03 µM, first compound 0.0316 µM
[22] = second compound 0.03 µM, first compound 0.1 µM
[23] = second compound 0.03 µM, first compound 0.316 µM
[24] = second compound 0.03 µM, first compound 1 µM
[25] = second compound 0.0949 µM, first compound 0.00316 µM
[26] = second compound 0.0949 µM, first compound 0.01 µM
[27] = second compound 0.0949 µM, first compound 0.0316 µM
[28] = second compound 0.0949 µM, first compound 0.1 µM
[29] = second compound 0.0949 µM, first compound 0.316 µM
[30] = second compound 0.0949 µM, first compound 1 µM
[31] = second compound 0.3 µM, first compound 0.00316 µM
[32] = second compound 0.3 µM, first compound 0.01 µM
[33] = second compound 0.3 µM, first compound 0.0316 µM
[34] = second compound 0.3 µM, first compound 0.1 µM
[35] = second compound 0.3 µM, first compound 0.316 µM
[36] = second compound 0.3 µM, first compound 1 µM
[37] = second compound 0.000949 µM, first compound 0.000949 µM
[38] = second compound 0.000949 µM, first compound 0.003 µM
[39] = second compound 0.000949 µM, first compound 0.00949 µM
[40] = second compound 0.000949 µM, first compound 0.03 µM
[41] = second compound 0.000949 µM, first compound 0.0949 µM
[42] = second compound 0.000949 µM, first compound 0.3 µM
[43] = second compound 0.003 µM, first compound 0.000949 µM
[44] = second compound 0.003 µM, first compound 0.003 µM
[45] = second compound 0.003 µM, first compound 0.00949 µM
[46] = second compound 0.003 µM, first compound 0.03 µM
[47] = second compound 0.003 µM, first compound 0.0949 µM
[48] = second compound 0.003 µM, first compound 0.3 µM
[49] = second compound 0.00949 µM, first compound 0.000949 µM
[50] = second compound 0.00949 µM, first compound 0.003 µM
[51] = second compound 0.00949 µM, first compound 0.00949 µM
[52] = second compound 0.00949 µM, first compound 0.03 µM
[53] = second compound 0.00949 µM, first compound 0.0949 µM
[54] = second compound 0.00949 µM, first compound 0.3 µM
[55] = second compound 0.03 µM, first compound 0.000949 µM
[56] = second compound 0.03 µM, first compound 0.003 µM
[57] = second compound 0.03 µM, first compound 0.00949 µM
[58] = second compound 0.03 µM, first compound 0.03 µM
[59] = second compound 0.03 µM, first compound 0.0949 µM
[60] = second compound 0.03 µM, first compound 0.3 µM
[61] = second compound 0.0949 µM, first compound 0.000949 µM
[62] = second compound 0.0949 µM, first compound 0.003 µM
[63] = second compound 0.0949 µM, first compound 0.00949 µM
[64] = second compound 0.0949 µM, first compound 0.03 µM
[65] = second compound 0.0949 µM, first compound 0.0949 µM
[66] = second compound 0.0949 µM, first compound 0.3 µM
[67] = second compound 0.3 µM, first compound 0.000949 µM
[68] = second compound 0.3 µM, first compound 0.003 µM
[69] = second compound 0.3 µM, first compound 0.00949 µM
[70] = second compound 0.3 µM, first compound 0.03 µM
[71] = second compound 0.3 µM, first compound 0.0949 µM
[72] = second compound 0.3 µM, first compound 0.3 µM

C=CC(=O)N1CCN(c2nc(OCC3CCCN3C)nc3c(F)c(-c4nc(N)cc(C)c4C(F)(F)F)c(Cl)cc23)C(C)C1 (stereo not drawn) + CCn1c(-c2cc(N3CCN(C)CC3)cnc2C(C)OC)c2c3cc(ccc31)-c1csc(n1)CC(NC(=O)C1CC1C)C(=O)N1CCCC(N1)C(=O)OCC(C)(C)C2
< 3.16 nM: IC50 (second compound 0.000949 µM) | IC50 (second compound 0.003 µM) | IC50 (second compound 0.00949 µM) | IC50 (second compound 0.03 µM) | IC50 (second compound 0.0949 µM) | IC50 (second compound 0.3 µM)
inactive: viability, T/C [1] 32.5% | viability, T/C [2] 33% | viability, T/C [3] 22.8% | viability, T/C [4] 30.2% | viability, T/C [5] 28.8% | viability, T/C [6] 23.3% | viability, T/C [7] 32.6% | viability, T/C [8] 26.3% | viability, T/C [9] 23.6% | viability, T/C [10] 29.8% | viability, T/C [11] 29.5% | viability, T/C [12] 27.4% | viability, T/C [13] 31% | viability, T/C [14] 25% | viability, T/C [15] 28.1% | viability, T/C [16] 28.5% | viability, T/C [17] 25.9% | viability, T/C [18] 26.9% | viability, T/C [19] 26.4% | viability, T/C [20] 23% | viability, T/C [21] 25% | viability, T/C [22] 21% | viability, T/C [23] 16.9% | viability, T/C [24] 21.8% | viability, T/C [25] 18.4% | viability, T/C [26] 16.8% | viability, T/C [27] 16% | viability, T/C [28] 14.4% | viability, T/C [29] 12.2% | viability, T/C [30] 13.8% | viability, T/C [31] 17.2% | viability, T/C [32] 13.7% | viability, T/C [33] 14% | viability, T/C [34] 11.8% | viability, T/C [35] 12.9% | viability, T/C [36] 11.1%

CC1(C)CCC(Nc2ncc(C(F)(F)F)c(-c3c[nH]c4c(P(C)(C)=O)c(C#N)ccc34)n2)CN1 (stereo not drawn) + CCn1c(-c2cc(N3CCN(C)CC3)cnc2C(C)OC)c2c3cc(ccc31)-c1csc(n1)CC(NC(=O)C1CC1C)C(=O)N1CCCC(N1)C(=O)OCC(C)(C)C2
inactive: viability, T/C [37] 33.9% | viability, T/C [38] 29.4% | viability, T/C [39] 21.1% | viability, T/C [40] 26.6% | viability, T/C [41] 21% | viability, T/C [42] 14.5% | viability, T/C [43] 26.6% | viability, T/C [44] 21.2% | viability, T/C [45] 16.8% | viability, T/C [46] 18.4% | viability, T/C [47] 16.7% | viability, T/C [48] 12.2% | viability, T/C [49] 21.4% | viability, T/C [50] 16.8% | viability, T/C [51] 16.1% | viability, T/C [52] 15.9% | viability, T/C [53] 12.8% | viability, T/C [54] 11.8% | viability, T/C [55] 17.6% | viability, T/C [56] 14.4% | viability, T/C [57] 13.4% | viability, T/C [58] 12.8% | viability, T/C [59] 10.5% | viability, T/C [60] 12.6% | viability, T/C [61] 15% | viability, T/C [62] 13.5% | viability, T/C [63] 10.5% | viability, T/C [64] 10.9% | viability, T/C [67] 13.1% | viability, T/C [68] 10.8% | viability, T/C [69] 10.7%
active: viability, T/C [65] 9.11% | viability, T/C [66] 10.1% | viability, T/C [70] 9.9% | viability, T/C [71] 9.8% | viability, T/C [72] 9.04%
< 0.949 nM: IC50 (second compound 0.000949 µM) | IC50 (second compound 0.003 µM) | IC50 (second compound 0.00949 µM) | IC50 (second compound 0.03 µM) | IC50 (second compound 0.0949 µM) | IC50 (second compound 0.3 µM)

CCc1c2c(nc3ccc(O)cc13)-c1cc3c(c(=O)n1C2)COC(=O)[C@]3(O)CC + CCn1c(-c2cc(N3CCN(C)CC3)cnc2C(C)OC)c2c3cc(ccc31)-c1csc(n1)CC(NC(=O)C1CC1C)C(=O)N1CCCC(N1)C(=O)OCC(C)(C)C2
inactive: viability, T/C [37] 40.7% | viability, T/C [38] 21% | viability, T/C [43] 32.5% | viability, T/C [44] 13.4% | viability, T/C [49] 26.2% | viability, T/C [50] 11.2% | viability, T/C [55] 20.6% | viability, T/C [56] 11.9% | viability, T/C [61] 16% | viability, T/C [67] 15.7%
active: viability, T/C [39] 4.92% | viability, T/C [40] 2.52% | viability, T/C [41] 1.86% | viability, T/C [42] 0.88% | viability, T/C [45] 4.98% | viability, T/C [46] 1.97% | viability, T/C [47] 1.43% | viability, T/C [48] 1.2% | viability, T/C [51] 5.03% | viability, T/C [52] 1.84% | viability, T/C [53] 1.75% | viability, T/C [54] 1.2% | viability, T/C [57] 5.17% | viability, T/C [58] 2.36% | viability, T/C [59] 1.52% | viability, T/C [60] 1.97% | viability, T/C [62] 10.9% | viability, T/C [63] 4.9% | viability, T/C [64] 3.03% | viability, T/C [65] 1.77% | viability, T/C [66] 2.09% | viability, T/C [68] 10.6% | viability, T/C [69] 4.9% | viability, T/C [70] 2.44% | viability, T/C [71] 2.32% | viability, T/C [72] 2.38%
< 0.949 nM: IC50 (second compound 0.000949 µM) | IC50 (second compound 0.003 µM) | IC50 (second compound 0.00949 µM) | IC50 (second compound 0.03 µM) | IC50 (second compound 0.0949 µM) | IC50 (second compound 0.3 µM)

C=CC(=O)Nc1cc(Nc2nccc(-c3cn(C)c4ccccc34)n2)c(OC)cc1N(C)CCN(C)C + CCn1c(-c2cccnc2C(C)OC)c2c3cc(ccc31)N1CCOC(CC(NC(=O)C(C(C)C)N(C)C(=O)C3(F)CCN(C(=O)C#CC(C)(C)N(C)C)CC3)C(=O)N3CCCC(N3)C(=O)OCC(C)(C)C2)C1
< 3.16 nM: IC50 (second compound 0.000949 µM) | IC50 (second compound 0.00949 µM) | IC50 (second compound 0.03 µM) | IC50 (second compound 0.0949 µM) | IC50 (second compound 0.3 µM)
inactive: viability, T/C [1] 38.8% | viability, T/C [2] 38.4% | viability, T/C [3] 29% | viability, T/C [4] 28.6% | viability, T/C [5] 25.8% | viability, T/C [6] 20.1% | viability, T/C [7] 99.9% | viability, T/C [8] 44.7% | viability, T/C [9] 101% | viability, T/C [10] 120% | viability, T/C [11] 102% | viability, T/C [12] 32.5% | viability, T/C [13] 35.5% | viability, T/C [14] 28.9% | viability, T/C [15] 31.1% | viability, T/C [16] 30.5% | viability, T/C [17] 23.9% | viability, T/C [18] 22.2% | viability, T/C [19] 31.2% | viability, T/C [20] 26.7% | viability, T/C [21] 30.9% | viability, T/C [22] 30.9% | viability, T/C [23] 18.3% | viability, T/C [24] 23.1% | viability, T/C [25] 27.1% | viability, T/C [26] 28.6% | viability, T/C [27] 31% | viability, T/C [28] 26.7% | viability, T/C [29] 19.2% | viability, T/C [30] 21.6% | viability, T/C [31] 25.5% | viability, T/C [32] 26.7% | viability, T/C [33] 24.6% | viability, T/C [34] 23% | viability, T/C [35] 22.9% | viability, T/C [36] 21.6%
719 nM: IC50 (second compound 0.003 µM)
